Data reported in patent publication US20200023038A1, “METHOD OF TREATING NEOPLASIAS” (PARANTA BIOSCIENCES LIMITED, priority 2015, published 2020).
“Also recorded” adds a separate entry of the source.

Key:
[1] = system: A549 lung adenocarcinoma cells; test: Sensitization of cells to platinum/alkylating agent with TGFBR1 and ACVR1B inhibitor; format: cell-based, human
Method: 10,000 cells per well were plated in to a 96 well plate. […] Plates are left to incubate for 3 days with an Alamar Blue reading performed at end point.
(§1) 5000 cells per well were plated in quadruplicates in RPMI with 1% heat-inactivated NCS (HiNCS) and Glutamax and allowed to adhere overnight. Media was then removed and either vehicle or 5 μM SB-505124 was added and incubated for 24 hours. Media was then removed and replaced with media containing increasing concentrations of carboplatin with either vehicle or 5 μM SB-505124. After 3 days of incubation Alamar Blue was added and plates were incubated for 2.5 hours before being read using Fluostar Optima Plate Reader.

NCI-H358 = test: Sensitization of cells to platinum with TGFBR1 and ACVR1B inhibitor; format: cell-based, human; details: NCI-H358, 5 μM SB-505124 pre-treatment 24 hours, then carboplatin 3 days
Method: as §1

TAK1 = test: Western blot of phospho-TAK1; format: cell-based, human
Method: Cell lysates were prepared using RIPA buffer with the addition of Halt Protease and Phosphatase Inhibitor Cocktails. Gel electrophoresis and transfer was performed using the BioRad MiniProtean System according to manufacturer's instructions. Phospho-TAK1 was detected using the combination of Rabbit anti-Phospho-TAK1 and anti-Rabbit IgG, HRP linked primary and secondary antibodies respectively.

[2] = system: A549 lung adenocarcinoma cell line; test: Innate platinum responsiveness, Alamar Blue viability over carboplatin concentrations; format: cell-based, human; details: chemonaive A549, 3 days
Method: The A549 lung adenocarcinoma cell line was originally derived from a smoker prior to treatment with chemotherapy. This chemonaive cell line carrying a common KRAS mutation was chosen as the primary cell line for modelling innate platinum responsiveness. Platinum responsiveness of A549 lung adenocarcinoma cell line was assessed against a wide range of carboplatin concentrations. […] 10,000 cells per well were plated in to a 96 well plate. […] Plates are left to incubate for 3 days with an Alamar Blue reading performed at end point. Curves of cell death in response to the respective alkylating agent were generated by graphing fluorescence (as a measure of cell viability) vs the alkylating agent concentration.

LX22CL cells = test: as above; format: cell-based, human; details: chemonaive SCLC line LX22CL, 3 days
[3] = system: A549 lung adenocarcinoma cells; test: DNA damage response, γH2AX confocal immunofluorescence; format: cell-based, human; details: 24 hr carboplatin, increasing concentrations
Method: DNA damage induced by platinum was visualised by confocal immunofluorescence microscopy. A549 lung adenocarcinoma cells were treated with appropriate primary and secondary antibodies to visualise γH2AX and the DNA counterstain DAPI following 24 hr treatment with increasing concentrations of carboplatin.

A549 flank xenografts = test: In vivo modelling of platinum resistance, xenograft; set-up: species or system athymic nude mice; details: carboplatin 60 mg/kg day 0 or 2 μg FST day −1, +1, +3, +5, intraperitoneally
Method: Follistatin (FST) is a molecule that is known for its role in regulating the activities of TGFβ superfamily members, including activin and GDF11, both of which were identified as important players in chemoresistance of non-small cell lung carcinoma (NSCLC) cells (see Example 2). Therefore, the effects of FST on inducing sensitization of NSCLC cells to platinum therapy were assessed in an in vivo xenograft model. Athymic nude mice bearing A549 flank xenografts were treated with combinations of vehicle control, 60 mg/kg carboplatin on day 0, and/or 2 μg FST on day -1, +1, +3 and +5. Five mice were randomized in to each of the treatment groups and treatments started when the tumour size was 200 mm^3. Tumour volumes were measured daily and the animals were culled when the tumour size reached over 500 mm^3. Athymic nude mice bearing A549 flank xenografts were treated with combinations of vehicle control, 60 mg/kg carboplatin on day 0, and/or 2 μg FST on day -1, +1, +3 and +5 administered intraperitoneally. Recombinant human Follistatin 288 (FST) was used in all experiments. FST was provided by […] Biosciences Ltd.

[4] = background statement; cited from earlier work

Compound: Cc1cccc(-c2[nH]c(C(C)(C)C)nc2-c2ccc3c(c2)OCO3)n1 [SB-505124]
- sensitization to platinum (carboplatin) ([1]; A549, 5 μM SB-505124 pre-treatment 24 hours, then carboplatin 3 days): induced sensitization to platinum; also recorded: sensitized
- sensitization to busulfan ([1]; A549, SB-505124 pre-treatment then busulfan range): showed sensitization
- sensitization to cisplatin ([1]; A549, SB-505124 pre-treatment then cisplatin range): showed sensitization
- sensitization to platinum (carboplatin) (NCI-H358): showed sensitization to platinum; also recorded: sensitized
- activation of TAK1 (phosphorylated TAK1 level) (TAK1; A549 and NCI-H358 cells, SB-505124 pre-treatment then carboplatin): inhibited the activation of TAK1

Compound: N.N.O=C([O-])C1(C(=O)[O-])CCC1.[Pt+2] [carboplatin]
- platinum responsiveness (survival against carboplatin concentration) [2]: exhibits an active resistance mechanism
- platinum responsiveness (survival against carboplatin concentration) (LX22CL cells): shows sensitivity to carboplatin
- DNA damage (γH2AX) [3]: effect DNA damage, at much lower concentrations than is required to induce cell death
- phosphorylated TAK1 (activated form) levels (TAK1; cells treated with carboplatin): upregulated
- tumour growth, agent alone (A549 flank xenografts): did not affect tumour growth

Compound: N.N.[Cl][Pt][Cl] [trans-DDP, trans-diamminedichloroplatinum (II)]
- activity against tumours [4]: ineffective against tumours
